From PubChem BioAssay AID248 (DTP/NCI, 2004)
“And” between values parts separate entries of the source, which are not always exact repeats. Equal entries are not always repeated. Inconclusive results and toxic doses are left out. Cut-off read from the data, not from the text of the source: active = T/C of 150% or more; inactive = T/C below 125%.

System: L1210 leukemia ip in BDF1 mice, survival T/C
Assay: NCI In Vivo Anticancer Drug Screen. Data for tumor model L1210 Leukemia (intraperitoneal) in B6D2F1 (BDF1) mice
Details: endpoint: mean survival time, higher = longer survival
How it was run: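 Tumor was transplanted into mice, which were then dosed with test compound or vehicle alone. Survival was recorded for each group, and the treated figure was expressed relative to the control figure.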

[1] = dose: 100.0 mg/kg/injection, schedule: Q01DX009 (ip), vehicle: saline with Tween-80
[2] = dose: 100.0 mg/kg/injection, schedule: Q04DX003 (ip), vehicle: saline with Tween-80
[3] = dose: 200.0 mg/kg/injection, schedule: Q01DX009 (ip), vehicle: saline with Tween-80
[4] = dose: 200.0 mg/kg/injection, schedule: Q04DX003 (ip), vehicle: saline with Tween-80
[5] = dose: 400.0 mg/kg/injection, schedule: Q01DX009 (ip), vehicle: saline with Tween-80
[6] = dose: 400.0 mg/kg/injection, schedule: Q04DX003 (ip), vehicle: saline with Tween-80
[7] = dose: 100.0 mg/kg/injection, schedule: Q01DX009 (ip), vehicle: Klucel (hydroxypropylcellulose) (HPC)
[8] = dose: 400.0 mg/kg/injection, schedule: Q04DX002 (ip), vehicle: saline with Tween-80
[9] = dose: 100.0 mg/kg/injection, schedule: Q04DX002 (ip), vehicle: saline with Tween-80
[10] = dose: 200.0 mg/kg/injection, schedule: Q04DX002 (ip), vehicle: saline with Tween-80
[11] = dose: 100.0 mg/kg/injection, schedule: Q04DX003 (ip), vehicle: saline
[12] = dose: 200.0 mg/kg/injection, schedule: Q04DX003 (ip), vehicle: saline
[13] = dose: 400.0 mg/kg/injection, schedule: Q04DX003 (ip), vehicle: saline
[14] = dose: 100.0 mg/kg/injection, schedule: Q04DX002 (ip), vehicle: saline
[15] = dose: 100.0 mg/kg/injection, schedule: Q01DX001 (ip), vehicle: saline
[16] = dose: 200.0 mg/kg/injection, schedule: Q01DX001 (ip), vehicle: saline
[17] = dose: 400.0 mg/kg/injection, schedule: Q01DX001 (ip), vehicle: saline
[18] = dose: 100.0 mg/kg/injection, schedule: Q01DX001 (ip), vehicle: carboxymethylcellulose (CMC)
[19] = dose: 200.0 mg/kg/injection, schedule: Q01DX001 (ip), vehicle: carboxymethylcellulose (CMC)
[20] = dose: 50.0 mg/kg/injection, schedule: Q01DX001 (ip), vehicle: saline

Measured: T/C

CCCCC(C=O)(C=C=C(C)C)CC (configuration not stated)
inactive: [1] 89 % of control | [2] 92 % of control | [3] 91 % of control | [4] 93 % of control | [5] 89 % of control | [6] 98 % of control

CC(C)(C)C(C)(O)C(=O)O (configuration not stated)
inactive: dose: 50.0 mg/kg/injection, schedule: Q01DX009 (ip), vehicle: saline with Tween-80 93 % of control | [1] 97 % of control | [3] 93 % of control

Cc1ccc(Cl)cc1NS(=O)(=O)c1cccc([N+](=O)[O-])c1
inactive: [1] 94 % of control | [3] 90 % of control

COC1C=CC2C3Cc4ccc(O)c5c4C2(CCN3C)C1O5 (configuration not stated)
inactive: dose: 75.0 mg/kg/injection, schedule: Q01DX001 (ip), vehicle: saline 104 % of control | dose: 150.0 mg/kg/injection, schedule: Q01DX001 (ip), vehicle: saline 103 % of control

CCCCCCCCCCCC(=O)Nc1ccc(S(=O)(=O)NNc2ccccc2)cc1[N+](=O)[O-]
inactive: [7] 95 % of control | dose: 100.0 mg/kg/injection, schedule: Q04DX003 (ip), vehicle: alcohol 94 % of control | dose: 200.0 mg/kg/injection, schedule: Q04DX003 (ip), vehicle: alcohol 95 % of control | dose: 400.0 mg/kg/injection, schedule: Q04DX003 (ip), vehicle: alcohol 90 % of control

Oc1ccc(C2CCCCCC2)cc1
inactive: dose: 12.5 mg/kg/injection, schedule: Q01DX001 (ip), vehicle: carboxymethylcellulose (CMC) 97 % of control | dose: 25.0 mg/kg/injection, schedule: Q01DX001 (ip), vehicle: carboxymethylcellulose (CMC) 103 % of control

CCCCCCCS(=O)(=O)CCCCCCC
inactive: dose: 25.6 mg/kg/injection, schedule: Q04DX002 (ip), vehicle: saline with Tween-80 95 % of control | dose: 64.0 mg/kg/injection, schedule: Q04DX002 (ip), vehicle: saline with Tween-80 91 % of control | [1] 94 % of control | [2] 93 % of control | dose: 160.0 mg/kg/injection, schedule: Q04DX002 (ip), vehicle: saline with Tween-80 91 % of control | [3] 94 % of control | [4] 95 % of control | [5] 98 % of control | [8] 95 % of control | [6] 90 % of control

O=C(O)CCC(Nc1sc([N+](=O)[O-])cc1[N+](=O)[O-])C(=O)O (configuration not stated)
inactive: [9] 95 % of control | [10] 106 % of control | [8] 92 % of control

COc1cc(C(=O)O)c(O)c(OC)c1OC
inactive: [7] 96 % of control | dose: 100.0 mg/kg/injection, schedule: Q04DX003 (ip), vehicle: Klucel (hydroxypropylcellulose) (HPC) 98 % of control | dose: 200.0 mg/kg/injection, schedule: Q01DX009 (ip), vehicle: Klucel (hydroxypropylcellulose) (HPC) 106 % of control | dose: 200.0 mg/kg/injection, schedule: Q04DX003 (ip), vehicle: Klucel (hydroxypropylcellulose) (HPC) 101 % of control | dose: 400.0 mg/kg/injection, schedule: Q01DX009 (ip), vehicle: Klucel (hydroxypropylcellulose) (HPC) 101 % of control | dose: 400.0 mg/kg/injection, schedule: Q04DX003 (ip), vehicle: Klucel (hydroxypropylcellulose) (HPC) 104 % of control

CC(=O)OC1CCC2(C)C(=CCC3C2CCC2(C)C3CC3C(c4ccccc4)=NN(c4ccccc4)C32C#N)C1 (configuration not stated)
inactive: dose: 100.0 mg/kg/injection, schedule: Q04DX002 (ip), vehicle: Klucel (hydroxypropylcellulose) (HPC) 103 % of control | dose: 200.0 mg/kg/injection, schedule: Q04DX002 (ip), vehicle: Klucel (hydroxypropylcellulose) (HPC) 92 % of control | dose: 400.0 mg/kg/injection, schedule: Q04DX002 (ip), vehicle: Klucel (hydroxypropylcellulose) (HPC) 98 % of control

O=C(OCCBr)c1ccc(Cl)cc1
inactive: [11] 101 % of control | [12] 97 % of control | [13] 103 % of control

O=C(Nc1ccc(C(=O)O)cc1)Nc1cccc(Cl)c1
inactive: dose: 25.0 mg/kg/injection, schedule: Q04DX002 (ip), vehicle: saline 92 % of control | dose: 50.0 mg/kg/injection, schedule: Q04DX002 (ip), vehicle: saline 95 % of control | [14] 100 % of control and 89 % of control

COc1ccc(/C=C2\NC(=O)NC2=O)cc1
inactive: [15] 98 % of control | [16] 93 % of control | [17] 95 % of control

c1ccc2c(c1)ccc1c3ccccc3[nH]c21
inactive: [2] 93 % of control | [4] 105 % of control | [6] 96 % of control

Cc1c(I)sc(I)c1I
inactive: [18] 94 % of control | [19] 94 % of control | dose: 400.0 mg/kg/injection, schedule: Q01DX001 (ip), vehicle: carboxymethylcellulose (CMC) 100 % of control

O=S1(=O)CCCCC1
inactive: dose: 75.0 mg/kg/injection, schedule: Q01DX009 (ip), vehicle: other 106 % of control | dose: 100.0 mg/kg/injection, schedule: Q04DX003 (ip), vehicle: saline sonified 95 % of control | dose: 150.0 mg/kg/injection, schedule: Q01DX009 (ip), vehicle: other 101 % of control | dose: 200.0 mg/kg/injection, schedule: Q04DX003 (ip), vehicle: saline sonified 93 % of control | dose: 300.0 mg/kg/injection, schedule: Q01DX009 (ip), vehicle: other 93 % of control | dose: 400.0 mg/kg/injection, schedule: Q04DX003 (ip), vehicle: saline sonified 95 % of control

NCCNC12CC3CC(CC(C3)C1)C2
inactive: [14] 113 % of control | dose: 200.0 mg/kg/injection, schedule: Q04DX002 (ip), vehicle: saline 107 % of control

O=S(=O)(SSS(=O)(=O)c1ccc(Cl)cc1)c1ccc(Cl)cc1
inactive: [11] 90 % of control | [12] 90 % of control | [13] 90 % of control

NC(=S)N/N=C\c1nccc2ccsc12
inactive: [9] 113 % of control | [10] 92 % of control | [8] 103 % of control

CCCCC(=O)N(CC(C)C)CC(C)C
inactive: dose: 25.0 mg/kg/injection, schedule: Q04DX002 (ip), vehicle: carboxymethylcellulose (CMC) 95 % of control | dose: 50.0 mg/kg/injection, schedule: Q01DX001 (ip), vehicle: carboxymethylcellulose (CMC) 95 % of control | dose: 50.0 mg/kg/injection, schedule: Q01DX009 (ip), vehicle: carboxymethylcellulose (CMC) 98 % of control and 120 % of control | dose: 50.0 mg/kg/injection, schedule: Q04DX002 (ip), vehicle: carboxymethylcellulose (CMC) 100 % of control and 102 % of control | dose: 50.0 mg/kg/injection, schedule: Q04DX003 (ip), vehicle: carboxymethylcellulose (CMC) 101 % of control | [18] 97 % of control | dose: 100.0 mg/kg/injection, schedule: Q01DX009 (ip), vehicle: carboxymethylcellulose (CMC) 95 % of control and 103 % of control | dose: 100.0 mg/kg/injection, schedule: Q04DX002 (ip), vehicle: carboxymethylcellulose (CMC) 98 % of control and 103 % of control and 105 % of control | dose: 100.0 mg/kg/injection, schedule: Q04DX003 (ip), vehicle: carboxymethylcellulose (CMC) 95 % of control | [19] 88 % of control | dose: 200.0 mg/kg/injection, schedule: Q01DX009 (ip), vehicle: carboxymethylcellulose (CMC) 103 % of control and 92 % of control | dose: 200.0 mg/kg/injection, schedule: Q04DX002 (ip), vehicle: carboxymethylcellulose (CMC) 92 % of control | dose: 200.0 mg/kg/injection, schedule: Q04DX003 (ip), vehicle: carboxymethylcellulose (CMC) 101 % of control | dose: 400.0 mg/kg/injection, schedule: Q04DX002 (ip), vehicle: carboxymethylcellulose (CMC) 102 % of control

COC(=O)C1CN(Cc2ccccc2)C(=O)C1=O (configuration not stated)
inactive: [20] 100 % of control | [15] 100 % of control | [16] 90 % of control | [17] 96 % of control

Cc1ccc(C(=O)Cc2ccc(C#N)cc2)cc1
inactive: [20] 98 % of control | [15] 96 % of control | [16] 104 % of control | [17] 98 % of control
